Laboratory results as given in US8748369B2, “Use of targeted nitroxide agents in bone healing” (University of Pittsburgh-Of the Commonwealth System of …, priority 2009, dated 2014).
Where a SMILES comes first, the peptide text is derived from it. [ ]: non-standard residue; d: D form. The star is where a group is joined. NH(TEMPO-4-yl) = CC1(C)CC(N*)CC(C)(C)N1[O]; Orn = NCCC[C@H](N)C(=O)O; Cbz = O=C(OCc1ccccc1)*; Boc = CC(C)(C)OC(=O)*

Columns and labels:
[1] = tested on: mice exposed to total body irradiation; assay: Survival of mice after total body irradiation; assay type: in vivo, mouse
Protocol: Mice received intraperitoneal injection of 10 mg. per kilogram of each of the chemicals indicated in FIG. 5, then 24 hours later received 9.75 Gy total body irradiation according to published methods. Mice were followed for survival according to IACUC regulations. […] (P=0.0008).
Groups of 15 mice received intraperitoneal injection of 10 mg. per kilogram of each indicated GS-nitroxide compound or carrier (Cremphora plus alcohol at 1 to 1 ratio, then diluted 1 to 10 in distilled water). Mice received 10 mg per kilogram intra-peritoneal injection 24 hours prior to total body irradiation. Control mice received radiation alone. […] (P=0.0005)

[2] = Topical and transdermal absorption through mouse skin (Bronaugh diffusion cell, EPR); assay type: in vitro ADME; settings: preliminary experiment
Text: A small piece of skin (2 cm^2) was placed in a Bronaugh style flow-through diffusion cell system (PermeGear, Riegelsville, Pa.) (FIG. 22). It was then sandwiched between two pieces of the inert polymer Kel-F and clamped shut to prevent leakage. The epidermal side faces upward and is exposed to the donor solution (test solution), and the dermal side is in contact with the receptor fluid. The exposed surface area is 0.79 cm^2 (circular chamber with 1 cm diameter). The skin forms a water-tight seal in the flow through chamber so the receiving fluid (PBS+25% ethanol) on the dermal side will contain the XJB-5-125 only if it has penetrated through the skin. The receiver chamber was perfused with this buffer that then passes to a fraction collector via Teflon tubing. The PBS+25% ethanol was used because it is an effective sink for hydrophobic compounds and produces better in vitro/in vivo correlations than other receiver solutions. The skin was maintained at 32° C. by placing the chamber in a metal block heated via a recirculating water bath. […]
EPR spectra were recorded at 334.7 mT, center field; 20 mW, power; 0.079 mT, field modulation; 5 mT, sweep width; 400 and 4000, receiver gain; 0.1 s, time constraint. […]
Further, the total transdermal absorption after 24 hours and the level of XJB-5-125 present in the viable skin can be successfully measured using the techniques described herein. […]

mouse embryonic cells [3] = assay: Gamma-irradiation dose survival curves of mouse embryonic cells; assay type: cell-based; settings: 20 μM pre- (10-min) or post-treated (1-h)
Protocol: Cells were plated in 35-mm Petri dishes with 2 ml culture medium at a density between 100 and 1000 cells per dish. Cells were treated with GS-nitroxide (XJB-5-125) either before (10-min) or after (1-h) γ-irradiation. XJB-5-125 was removed from the medium 4-h post-irradiation. Colonies were fixed and stained with 0.25% crystal violet and 10% formalin (35% v/v) in 80% methanol for 30 min after a 9-day incubation period, and those of ≧50 cells were counted as survivors. The surviving fraction was calculated as the plating efficiency of the samples relative to that of the control.
Cells were pre- (10-min) or post-treated (1-h) with XJB-5-125 (20 μM), which was removed after 4-h incubation period. The surviving fraction was calculated as the plating efficiency of the samples relative to that of the control. The data was fitted to a single-hit multitarget model using SigmaPlot 9.0 (Systat Software). Data presented are the mean±S.E. (n=3).

mouse embryonic cells [4] = assay: Gamma irradiation induced apoptosis (cytochrome c release, PS externalization); assay type: cell-based
Protocol: Externalization of PS was analyzed by flow cytometry using annexin-V kit. Briefly, harvested cells were stained with annexin-V-FITC and PI for 5 min in dark prior to flow cytometry analysis. Ten thousand events were collected on a FACScan flow cytometer (Becton-Dickinson) supplied with CellQuest software.
(A) XJB-5-125 blocks γ-irradiation induced accumulation of cytochrome c in the cytosol of mouse embryonic cells. (B) Densitometry ratio of cytochrome c/actin. Semi-quantitation of the bands was carried out by densitometry using Labworks Image Acquisition and Analysis Software (UVP, Upland, Calif.). The level of cytochrome c release was expressed as the mean densitometry ratio of cytochrome c over actin. (C) Dose (5, 10 and 20 μM) dependent radioprotective effect of XJB-5-125 (pre-treatment) on γ-irradiation (10 Gy) induced phosphatidylserine (PS) externalization. After 48 h post-irradiation incubation, cells were harvested and stained with annexin-V-FITC and propodium iodide (PI) prior to flow cytometry analysis. (D) Time (2, 3, 4, 5, and 6 h) dependent radioprotective effect of XJB-5-125 (20 μM) on γ-irradiation (10 Gy) induced PS externalization (48 h post irradiation) in mouse embryonic cells. […] Externalization of PS was analyzed 72 h post-irradiation exposure. […]

SMILES | survival of mice exposed to 9.75 Gy total body irradiation ([1]; 10 mg per kilogram intraperitoneal 24 hours before irradiation) | survival of mice exposed to 9.5 Gy total body irradiation ([1]; 10 mg per kilogram intraperitoneal 24 hours prior to irradiation) | penetration of intact skin [2] | radiation mitigation and protection (FIG. 15 survival curves) (mouse embryonic cells [3]) | gamma irradiation induced apoptosis (mouse embryonic cells [4]; 10 Gy) | γ-irradiation induced accumulation of cytochrome c in the cytosol (mouse embryonic cells [4]; mouse embryonic cells)
CC(C)C[C@@H](/C=C/CC(=O)NC1CC(C)(C)N([O])C(C)(C)C1)NC(=O)OC(C)(C)C [JP4-039, (S,E)-5-(tert-Butoxycarbonylamino)-7-methyloct-3-enoic acid-TEMPO] | significant increase in survival | increases survival |  |  |  | 
CC(C)C[C@H](NC(=O)OC(C)(C)C)C(=O)N[C@H](Cc1ccccc1)C(=O)N1CCC[C@H]1C(=O)N[C@H](C(=O)N[C@@H](CCCNC(=O)OCc1ccccc1)C(=O)NC1CC(C)(C)N([O])C(C)(C)C1)C(C)C [XJB-5-125] (Boc-L[dF]PV[Orn](Cbz)-{NH(TEMPO-4-yl)}) |  |  | can sufficiently penetrate intact skin | radiation mitigator as well as a protector | protects | blocks
